[C(1O2)] = PNA monomer with modified cytosine C(1O2), structure; [A(5)] = PNA monomer with modified adenine A(5), structure; {Fethoc} = Fethoc group on PNA N-terminus; {NH2} = C-terminal amide
Columns and labels:
[1] = test system: 10-mer complementary DNA; test: Tm of duplex between PNA and 10-mer complementary DNA (UV/Vis); type: binding; conditions: 4 μM PNA and 4 μM 10-mer DNA, aqueous buffer pH 7.16, 10 mM sodium phosphate, 100 mM NaCl
Description: The PNA derivatives in Table 1 were evaluated for their binding affinity for 10-mer DNAs complementarily targeting either the N-terminal or C-terminal. The binding affinity was assessed by Tm value for the duplex between PNA and 10-mer complementary DNA. The duplex between PNA derivatives in Table 1 and fully complementary DNAs show Tm values too high to be reliably determined in aqueous buffer solution, since the buffer solution tends to boil off during the Tm measurement.
Tm values were determined on an UV/Vis spectrometer as follows. A mixed solution of 4 μM PNA oligomer and 4 μM complementary 10-mer DNA in 4 mL aqueous buffer (pH 7.16, 10 mM sodium phosphate, 100 mM NaCl) in 15 mL polypropylene falcon tube was incubated at 90° C. for a minute and slowly cooled down to ambient temperature over several minutes. Then the solution was transferred into a 3 mL quartz UV cuvette equipped with an air-tight cap, and subjected to a Tm measurement at 260 nm on an Agilent 8453 UV/Visible spectrophotometer or a similar one as described in the prior art [PCT/KR2009/001256] or with minor modifications. The 10-mer complementary DNAs for Tm measurement were purchased from Bioneer (www.bioneer.com, Dajeon, Republic of Korea) and used without further purification.

[2] = test system: C57BL/6 mice; test: Hair growth in C57BL/6 mice upon topical administration (brightness score, hair weight); type: in vivo, mouse
Description: (§1) [Hair Removal and Grouping] In Day 0, 7 week old female C57BL/6 mice were anesthetized with zoletil/rompun, and the hair in the back was cut and removed with a clipper and wax, respectively. Mice with flawless (i.e. spotless) hair removal were selected and randomly assigned into three groups (7 animals per group).
[Topical Administration] The topical solutions of “ASO 1” were prepared by diluting a mother stock solution of “ASO 1” to 0.2 fM or 1 fM in aqueous 30% (v/v) ethanol supplemented with 3% (v/v) glycerin. About 100 μL of 0 (negative control), 0.2, or 1 fM “ASO 1” was topically administered in the back of each animal using a cotton ball in Days 3, 7, 10, and 14.
[Digital Image Scoring for Hair Growth] For scoring the hair growth, the animals were anesthetized and photographed by group as shown in FIG. 11A using a digital camera at a fixed value of exposure time and illumination. The digital image for the area of the hair removal for each animal was selected and digitally scored for the average brightness over the selected area using “ImageJ” program. Lower brightness score is taken as faster hair growth. Brightness scores of individual animals were combined by group, and subjected to statistical analysis by student's t-test. FIG. 11B summarizes the relative brightness scores of the ASO treated groups against the control group. The relative brightness score tended to decrease with days in the treatment groups. […] Thus, “ASO 1” was concluded to promote hair growth upon topical administrations at 1 fM.
[Scoring by Hair Weight] In Day 21, the animals were anesthetized and the hair in the back was cut with a clipper. The hair samples from individual animals were combined by group, and weighed to evaluate the hair growth between Day 0 and Day 21. The average hair weight was 70.5 mg/animal for the control group, 90.8 mg/animal for the 0.2 fM treatment group, and 94.4 mg/animal for the 1 fM treatment group. Thus “ASO 1” was concluded to promote hair growth upon topical administrations at 0.2 fM as well as 1 fM.
as §1, with “(10” for “(7”
[Topical Administration] The topical solutions of “ASO 5” were prepared by diluting a mother stock solution of “ASO 5” to 1, 5, or 25 fM in aqueous 30% (v/v) ethanol supplemented with 3% (v/v) glycerin. About 100 μL of each ASO solution or vehicle (negative control) was topically administered to in the back of an animal using a cotton ball in Days 3, 7, 10, 14 and 21.
Following the shaving in Day 21, the animals received a single topical administration of either vehicle or “ASO 5” at 1 fM, 5 fM, or 25 fM. In Day 53, the hair in the back was collected by shaving with a clipper to determine the total amount of hair growth between Days 21 and 53. The average hair weights of the 1 fM, 5 fM, and 25 fM groups were 1,630%, 1,450%, and 771% of the non-treated group, respectively. Thus “ASO 5” was concluded to promote hair growth upon topical administrations at 1 to 25 fM.
as §1, with “(9” for “(7”
[Topical Administration] The topical solutions of “ASO 10” were prepared by diluting a mother stock solution of “ASO 10” to 1, 5, or 25 fM in aqueous 30% (v/v) ethanol supplemented with 3% (v/v) glycerin. About 100 μL of each ASO solution or vehicle (negative control) was topically administered to in the back of an animal using a cotton ball in Day 2.

[3] = test system: human AR mRNA; test: qPCR (SYBR Green) of AR mRNA level in MCF7 cells; conditions: 5 hours

Substance | Tm Value, 10-mer DNA against C-Terminal [1] [°C] | Tm Value, 10-mer DNA against N-Terminal [1] [°C] | average hair weight ([2]; 1 fM topical in Day 2, hair growth between Day 0 and Day 27) | average hair weight ([2]; 5 fM topical in Day 2, hair growth between Day 0 and Day 27) | average hair weight ([2]; 25 fM topical in Day 2, hair growth between Day 0 and Day 27) | brightness score vs non-treatment group ([2]; Day 27, 1 fM and 5 fM groups, topical in Day 2) | decrease of relative expression level of exons 4-6 ([3]; 1 zM to 1,000 zM) | average hair weight ([2]; 1 fM topical, hair growth between Day 0 and Day 21) | average hair weight ([2]; 1 fM, single topical administration after shaving in Day 21, hair growth between Days 21 and 53) | average hair weight ([2]; 5 fM topical, hair growth between Day 0 and Day 21) | average hair weight ([2]; 5 fM, single topical administration after shaving in Day 21, hair growth between Days 21 and 53) | average hair weight ([2]; 25 fM topical, hair growth between Day 0 and Day 21) | average hair weight ([2]; 25 fM, single topical administration after shaving in Day 21, hair growth between Days 21 and 53) | brightness score vs non-treated group ([2]; Day 17, 1 fM and 25 fM groups, topical in Days 3, 7, 10, 14 and 21) | exon message levels (exons 4-6) relative to negative control ([3]; 1 aM) | decrease of exon message levels (exons 4-6) ([3]; 100 zM) [%]
Fethoc-C(1O2)TT-A(5)CC-A(5)GG(6)-CA(5)A-NH2 (antisense CTTACCAGGCAA; N-Fethoc, C-terminal amide, chemistry not fully specified) [ASO 10] | 78.4 | 84.4 | 115 % of the non-treated group | 114 % of the non-treated group | 119 % of the non-treated group | significantly lower | 60-80% | – | – | – | – | – | – | – | – | –
Fethoc-C(1O2)TT-A(5)CC-A(5)GG-C(1O2)AA(5)-G-NH2 (antisense CTTACCAGGCAAG; all peptide nucleic acid (PNA), [C(1O2)] at 1, 10, [A(5)] at 4, 7, 12, 5' {Fethoc}, 3' {NH2}; peptide nucleic acid, written N to C terminus) [ASO 5] | 81.3 | 86.1 | – | – | – | – | – | 293 % of the negative control group | 1,630 % of the non-treated group | 306 % of the negative control group | 1,450 % of the non-treated group | 278 % of the negative control group | 771 % of the non-treated group | significantly lower | rebounded to near the levels of the negative control | 50 to 60

Reference: US20190345202A1, “ANDROGEN RECEPTOR ANTISENSE OLIGONUCLEOTIDES” (OliPass Corporation, priority 2016, published 2019)
